# Source: a melting point compilation (Tetko et al.; mined from patent text by program, amines drawn as free bases though some values may be those of a salt)
row,Compound,melting point
1,CS(=O)c1cccc(-n2c(=O)n(Cc3ccncc3)c(=O)c3cccnc32)c1 (stereo not drawn),218 to 219 °C
2,O=C1CC(c2cccc(-n3ccnc3)c2)=Nc2ccc(C3CC3)cc2N1,198 to 200 °C
3,CS(=O)(=O)N(CCc1ccc(Cl)cc1)Cc1cccnc1,77 to 78 °C
4,O=c1cc2c(nn1Cc1ccc(Cl)cc1)-c1cc(Br)sc1SCC2,152 to 154 °C
5,O=C(c1ccc(Cl)cc1)c1ccc2c(c1)C(c1cccc(Cl)c1)SCc1nnnn1-2 (stereo not drawn),212 °C
6,Cc1cc(Cc2cnc(NCCCN(Cc3ccccc3)c3ccccn3)[nH]c2=O)cnc1C,95 to 99 °C
7,O=C(CN1C(=O)c2ccccc2C1=O)c1ccc(F)cc1,140 to 144 °C
8,CCCCCCCCCCCCOP(=O)(CC(=O)Nc1c(C(C)C)cccc1C(C)C)c1ccccc1 (stereo not drawn),66 to 68 °C
9,COc1ccc2c(c1)c(C1CCN(CCOc3ccccc3C(=O)O)CC1)cn2Cc1ccoc1,153 to 154 °C
10,CCCCC1OC(=O)c2cc(NC3CCCCC3)ccc21 (stereo not drawn),123 to 124 °C
11,COc1ccc([N+](=O)[O-])cc1OC(F)F,48 to 49 °C
12,Fc1cccc(F)c1-c1ncc(Oc2cccc(Cl)c2)nn1,132 to 137 °C
13,CCC(CC)Oc1cc(C)nc(Nc2c(C)cc(C)cc2C)c1NC(=O)CCl,79 to 82 °C
14,CC(C)(C)OC(=O)NCCC(=O)N[C@@H](CC(=O)OCc1ccccc1)C(=O)NCCc1ccc(OCC(=O)OCc2ccccc2)cc1,123 to 124 °C
15,CCC(CC)(COc1cc(C)c2nc(C)nn2n1)CS(N)(=O)=O,159 to 160 °C
16,CC(=O)Oc1cc(-c2ccccc2)oc(=O)c1Sc1ccccc1C(C)C,113 to 115 °C
17,Cc1c(C)n(Cc2ccccc2)c(=O)n(CCCCl)c1=O,72 to 74 °C
18,CC(C)(C)C(=O)Oc1ccccc1-c1nnn[nH]1,82 to 85 °C
19,CCOC(=O)C=Cc1cc([N+](=O)[O-])cc2c1CCCC2,95 to 96 °C
20,Cc1cc(CN(C)c2cc(-c3ccc(Cl)cc3)nn2C)cc(C)c1OC(C)(C)C(=O)O,158 °C
21,CC1CCN(Cc2ccc(C=CC(=O)Nc3ccc(-c4ccc(Cl)cc4)cc3)cc2)CC1,207 to 208 °C

row,Compound,melting point
1,N#CCSc1nc(NCc2ccc3c(c2)OCO3)cc(-c2ccccc2)n1,140 to 142 °C
2,CC(C)(C)c1cc(Cl)cc(CO[C@H]2CCCN(Cc3nc(=O)[nH][nH]3)[C@H]2c2ccccc2)c1,181 to 182 °C
3,COc1ccc([C@@H]2Sc3cc(Oc4ccccc4)ccc3NC(=O)[C@@H]2O)cc1,181 to 183 °C
4,CCOC(=O)c1ncn2c1CN=C(c1ccccc1F)c1cc([N+](=O)[O-])ccc1-2,228 to 231 °C
5,C1COCCOCCOCCOCCO1,70 to 71 °C
6,O=C1C[C@@H](O)C[C@H](CCc2c(Cl)cc(Cl)cc2OCc2ccc(F)cc2)O1,133 to 135 °C
7,CCOC(=O)c1c(C)[nH]c2ccc(OCC3CO3)cc12 (stereo not drawn),93 to 94 °C
8,BrCc1ccc(-c2onc3ccccc23)cc1,146 to 147 °C
9,CCC12CCC3C4CCC(=O)C=C4CCC3C1CCC2(C)O (stereo not drawn),128 to 129 °C
10,O=[N+]([O-])c1cccc(Nc2nccc(-c3cccnc3)n2)c1,212 to 213 °C
11,COc1cc2[nH]cc(-c3cc4cc(F)cnc4n3S(=O)(=O)c3ccc(C)cc3)c2cc1OC,218 °C
12,CCONC(=O)c1ccc(-c2cccc(CN(C)Cc3ccccc3)c2)cn1,85 to 90 °C
13,COCc1nc(-c2ccc(C(F)(F)F)cc2)ncc1COc1ccc(OC(C)(C)C(=O)O)c(C)c1,120 to 121 °C
14,CCOC(=O)c1nccn1C1Cc2ccccc2C1=O (stereo not drawn),116 °C
15,Nc1ccc(C(=O)CCCCOCc2ccccc2)cc1,72 °C
16,CC(C)N1C(=O)C(N=[N+]=[N-])N=C(c2ccccc2)c2ccccc21 (stereo not drawn),178 to 179 °C
17,CSC1C(=O)Nc2ccc(-c3ccccc3)cc21 (stereo not drawn),170 to 172 °C
18,Cc1cc(-c2cc(CO)c(=O)n(Cc3ccccc3Cl)n2)ccc1F,149 to 150 °C
19,COC(=O)c1ccc(CNC(=O)C2Cc3ccccc3N2S(=O)(=O)c2ccc(-c3cccc(C(F)(F)F)c3)cc2)c(Cl)c1 (stereo not drawn),78 to 87 °C
20,N#Cc1ccc(Oc2c(Cl)cc(Cl)cc2Cl)cc1Cl,108 to 116 °C
21,CCOc1cc(C2=NN(Cc3ccc(N)cc3)C(=O)CC2)ccc1OC,120 °C

# Further lines, results first:
row,melting point,Compound
1,118 to 120 °C,Cc1ccc(S(=O)(=O)n2ccc3c2CC(c2ccccc2)CC3=O)cc1 (stereo not drawn)
2,68 °C,CCOC(Cn1nc(CC(=O)OC)c2ccccc2c1=O)OCC
3,145 to 147 °C,CCn1cc(Br)nc(S(=O)(=O)Cc2ccc(Cl)cc2)c1=O
4,232 to 234 °C,O=C1Nc2cccc(F)c2C(=O)N2CC[C@@H]12
5,160 to 161 °C,N#CCCNC(=O)C1=C(C(=O)Nc2ccc(Cl)cc2F)CCCC1
6,> 300 °C,Nc1n[nH]c2nc3cc(O)ccc3cc12
7,105 to 107 °C,FC(F)(F)c1nc(Cl)c(-c2ccccc2)c(-c2ccccc2)n1
8,162 °C,CCOC(=O)c1cc(-c2ccc(C(F)(F)F)cc2)n[nH]1
9,63 to 66 °C,O=C1CCC(CSc2ccccc2)C(=O)N1CN1CCCCC1 (stereo not drawn)
10,135 °C,COC(=O)C(c1ccc(Br)cc1)(c1ccc(Br)cc1)c1ncc[nH]1
11,72 to 74 °C,CC(=O)Nc1cc(F)c(OCC(F)F)cc1[N+](=O)[O-]
12,218 to 220 °C,CC(C)(CO)Nc1ccc2c(c1)C(=O)c1ccccc1C2=O
13,253 °C,Nc1ccc(Nc2c(NCC3CCCO3)cc(C(=O)O)cc2S(N)(=O)=O)cc1 (stereo not drawn)
14,65 to 66 °C,CCC(=Cc1cccc([N+](=O)[O-])c1)C(=O)Oc1ccc(OC)cc1
15,88 to 93 °C,O=C(c1ccc(OCC2CO2)cc1)c1cccc(C(=O)c2ccc(OCC3CO3)cc2)c1 (stereo not drawn)
16,107 °C,CCC(=O)c1ccc(CCNS(=O)(=O)c2ccc(OC)cc2)cc1
17,136 to 137 °C,CC(C)=CCN1c2nc(Cl)ccc2NC(=O)[C@@H]1C
18,102 to 104 °C,C/C(=C\c1ccc(C=O)cc1)c1ccc2c(c1)C(C)(C)CCO2
19,209 to 210 °C,CCc1cc(=O)c2nc(OCCO[Si](c3ccccc3)(c3ccccc3)C(C)(C)C)ccc2[nH]1

row,melting point,Compound
1,225 to 227 °C,CCc1cc(=O)c(I)c(CC)[nH]1
2,162 °C,CC(=O)OC1CSC(Oc2cncc(-c3ccc(C)cc3Cl)c2)C(OC(C)=O)C1OC(C)=O (stereo not drawn)
3,138 to 139 °C,O=C(O)CCS(=O)(=O)CCCl
4,86 to 87 °C,Cc1ccc(C(=O)OC2CCN(Cc3ccccc3[N+](=O)[O-])CC2)cc1
5,214 to 215 °C,NC1=NC2(CN(C(=O)c3cccs3)C2)Nc2cccc(F)c21
6,> 250 °C,Nc1c(-c2csc(-c3ccncc3)n2)c(=O)[nH]c2ccccc12
7,132 to 134 °C,CCN(c1ccc(Cl)cc1[N+](=O)[O-])S(=O)(=O)c1ccc(C)cc1
8,302 to 304 °C,O=C1NC(=O)c2c1c(-c1ccccc1Cl)cc1oc3cc(OCCCN4CCCC4)c(O)cc3c21
9,123 to 125 °C,COc1cc2oc(=O)c(CCN3CCN(c4ccccc4OC)CC3)c(C)c2cc1OC(C)C
10,191 to 193 °C,N#Cc1ccccc1NC(=O)c1snc(Cl)c1Cl
11,221 to 223 °C,Nc1cccc2ccc(C(=O)O)cc12
12,102 to 104 °C,CC(C)(C)OC(=O)N1CCn2c(c(C(N)=O)c(Cl)c2C2CC2)C1
13,124 °C,O=C(Nc1ccc(Cl)cc1)O[C@@H]1CN=C(c2ccccc2)O[C@H]1c1ccccc1 (racemic)
14,178 to 179 °C,O=C(OC(c1ccccc1)c1ccccc1)C(C1CC(Cl)=NO1)N1C(=O)c2ccccc2C1=O (stereo not drawn)
15,82 to 83 °C,C=C(CCl)C(C(=O)OC(c1ccccc1)c1ccccc1)N1C(=O)C2N=C(Cc3ccccc3)OC21 (stereo not drawn)
16,195 to 196 °C,CC[C@@H]1CN(c2c(F)c(N)c3c(=O)c(C(=O)O)cn(C4CC4)c3c2F)C[C@H]1N (relative stereo)
17,85 to 86 °C,Nc1ncccc1OCc1ccccc1F
18,128 to 130 °C,CCS(=O)CCn1nc(-c2cccc(Cl)c2Cl)c(=O)c2cccc(OC)c21 (stereo not drawn)
19,114 to 116 °C,O=C(NC[C@H]1CC[C@H](C(=O)O)CC1)OCc1ccccc1

row,melting point,Compound
1,130 to 132 °C,COC(CCc1ccc(Cl)cc1Cl)(Cn1cncn1)C(C)(C)C1OCCCO1 (stereo not drawn)
2,165 to 167 °C,O=C(O)Cc1ccccc1Oc1ccc(C(F)(F)F)cc1[N+](=O)[O-]
3,158 to 159 °C,CC1(C2CC2)OC(=O)Nc2ccc(-c3cccc(Cl)c3)cc21 (stereo not drawn)
4,145 to 150 °C,Cc1c(SCCCN2CCN(Cc3ccncc3)CC2)ccnc1CNc1cnc2ccccc2c1
5,194 to 196 °C,CCOCc1nc2c(N)nc3cc(-c4cccnc4)ccc3c2n1CCNC(=O)NC(C)C
6,95 °C,COCC(COC)(Cc1ccccc1)Cc1ccccc1
7,126 to 135 °C,Cc1nc(N)n(N)c(=O)c1CCO
8,84 to 85 °C,CCOCCOC(=O)c1nc2ccc(COc3cccc(OCc4ccc5ccccc5n4)c3)cc2o1
9,203 to 205 °C,CON=C(C)c1nc(-c2cccnc2)[nH]c1C
10,123 to 125 °C,CC(C)CC(NC(=O)Cc1ccc2ccccc2c1)C(=O)NC(Cc1ccccc1)C(=O)CSCc1ccco1 (stereo not drawn)
11,> 260 °C,N#Cc1cnc2cc3c(cc2c1Nc1ccc(Oc2ccccc2)cc1)ncn3CCN1CCOCC1
12,224 to 226 °C,O=C(Nc1cccc2c1C(=O)c1c-2n[nH]c1-c1ccc(C(=O)NC2CCNCC2)s1)NN1CCOCC1
13,113 to 115 °C,CCN1c2ncccc2C(=O)N(C)c2ccc(-c3c[nH]nc3C)nc21
14,187 to 189 °C,O=C(Nc1ccc(-n2nc(C(F)(F)F)cc2C(F)(F)F)cc1)c1c(F)ccc([N+](=O)[O-])c1F
15,121 to 123 °C,CCc1c(C)cc(C#N)c(N)c1C#N
16,61 to 62 °C,CCOC(=O)C(=CNc1ccc(F)c(F)c1OCC(C)OS(=O)(=O)c1ccc(C)cc1)C(=O)OCC (stereo not drawn)
17,219 to 220 °C,CCn1nc2c(OC)nc3ccccc3c2c1CO
18,135 to 136 °C,CCCCNC(=O)NS(=O)(=O)C(C)=Cc1ccccc1
